Results as given in the supplement of paper PMC11061612.

Tests used:
Experiment in all cases: Bliss excess, mean over the matrix (fraction); higher = more synergy
[1] = tested on: FTC-133 (Thyroid Gland Carcinoma)
Method in brief: (§1)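 Bliss excess equals the observed combination effect minus the expected value EA + EB − EA·EB, where EA and EB are the effects of each agent alone. Combination Emax is the second-highest inhibition within the matrix. Inhibition was scaled from CellTiter-Glo 2.0 luminescence, with 0 set by vehicle wells and 1 by blank wells, after 72 hours of two-drug dosing of cells plated in 1536-well plates.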

[2] = tested on: MPP-89 (Mesothelioma)
Method in brief: as §1

[3] = tested on: NUGC-4 (Gastric Carcinoma)
Method in brief: as §1

[4] = tested on: NCI-H2052 (Mesothelioma)
Method in brief: as §1

[5] = tested on: Detroit562 (Head and Neck Carcinoma)
Method in brief: as §1

[6] = tested on: WSU-NHL (B-Cell Non-Hodgkin's Lymphoma)
Method in brief: as §1

[7] = tested on: HH (T-Cell Non-Hodgkin's Lymphoma)
Method in brief: as §1

[8] = tested on: NCI-H2722 (Mesothelioma)
Method in brief: as §1

[9] = tested on: TGBC1TKB (Biliary Tract Carcinoma)
Method in brief: as §1

[10] = tested on: ALL-PO (B-Lymphoblastic Leukemia)
Method in brief: as §1

[11] = tested on: EW-11 (Ewing's Sarcoma)
Method in brief: as §1

[12] = tested on: Hs-746T (Gastric Carcinoma)
Method in brief: as §1

[13] = tested on: BPH-1 (Non-Cancerous)
Method in brief: as §1

[14] = tested on: YAPC (Pancreatic Carcinoma)
Method in brief: as §1

[15] = tested on: SNU-449 (Hepatocellular Carcinoma)
Method in brief: as §1

[16] = tested on: SW1573 (Lung Adenocarcinoma)
Method in brief: as §1

[17] = tested on: SNU-16 (Gastric Carcinoma)
Method in brief: as §1

[18] = tested on: GAMG (Glioblastoma)
Method in brief: as §1

[19] = tested on: SW1710 (Bladder Carcinoma)
Method in brief: as §1

[20] = tested on: A673 (Ewing's Sarcoma)
Method in brief: as §1

SMILES | Bliss excess [1] | Bliss excess [2] | Bliss excess [3] | Bliss excess [4] | Bliss excess [5] | Bliss excess [6] | Bliss excess [7] | Bliss excess [8] | Bliss excess [9] | Bliss excess [10] | Bliss excess [11] | Bliss excess [12] | Bliss excess [13] | Bliss excess [14] | Bliss excess [15] | Bliss excess [16] | Bliss excess [17] | Bliss excess [18] | Bliss excess [19] | Bliss excess [20]
CCN(CCO)CCCOc1ccc2c(Nc3cc(CC(=O)Nc4cccc(F)c4)[nH]n3)ncnc2c1 [AZD2811] + O=C(c1cc(Cc2n[nH]c(=O)c3ccccc23)ccc1F)N1CCN(C(=O)C2CC2)CC1 [Olaparib] (first compound max 1 µM, 7x7, partner max 10 µM) | -0.0174 | -0.0334 | 0 | -0.0042 | 0.0133 | -0.0841 | -0.0353 | -0.016 | -0.0368 | 0.0133 | 0.0191 | -0.0553 | 0.0466 | -0.0124 | -0.0368 | 0.0123 | -0.0101 | -0.0041 | 0.0073 | -0.0906
NC1(C(=O)N[C@@H](CCO)c2ccc(Cl)cc2)CCN(c2ncnc3[nH]ccc23)CC1 [Capivasertib] + CC(=O)c1c(C)c2cnc(Nc3ccc(N4CCNCC4)cn3)nc2n(C2CCCC2)c1=O [Palbociclib] (first compound max 10 µM, 7x7, partner max 10 µM) | -0.011 | -0.0553 | -0.0345 | -0.0171 | 0.0585 | -0.0671 | -0.0305 | -0.0436 | 0.0157 | -0.0252 | 0.0121 | -0.0322 | -0.0574 | 0.0043 | 0.001 | -0.0253 | 0.0129 | 0.0237 | -0.009 | -0.018
Cc1c2c(nn1C)CSCc1cc(n(C)n1)CSc1cc(c3ccccc3c1)OCCCc1c(C(=O)O)n(C)c3c-2c(Cl)ccc13 [AZD5991] + Cc1cc2ncnn2cc1Nc1ncc2c(n1)n(C1CCOCC1)c(=O)n2C [AZD7648] (first compound max 1 µM, 7x7, partner max 10 µM) | -0.0322 | 0.0158 | -0.0498 | -0.0556 | -0.0172 | -0.0594 | -0.0536 | -0.0785 | -0.0115 | -0.0304 | -0.0197 | -0.0784 | -0.0632 | 0.0003 | -0.0453 | -0.0896 | 0.0284 | -0.0321 | -0.0209 | -0.0515
COc1cccc(OCCCN)c1-c1cc(Nc2cnc(C#N)cn2)n[nH]1 [Prexasertib] + O=C(c1cc(Cc2n[nH]c(=O)c3ccccc23)ccc1F)N1CCN(C(=O)C2CC2)CC1 [Olaparib] (first compound max 1 µM, 7x7, partner max 10 µM) | -0.0399 | -0.0227 | -0.019 | -0.0332 | -0.0467 | -0.0532 | -0.121 | -0.0088 | -0.0767 | -0.0194 | -0.0849 | -0.0198 | 0.0266 | -0.0491 | -0.0813 | 0.001 | -0.0417 | 0.0122 | -0.0857 | -0.0452
Cn1cnc2c(F)c(Nc3ccc(Br)cc3Cl)c(C(=O)NOCCO)cc21 [Selumetinib] + CCN(CCO)CCCOc1ccc2c(Nc3cc(CC(=O)Nc4cccc(F)c4)[nH]n3)ncnc2c1 [AZD2811] (first compound max 10 µM, 7x7, partner max 1 µM) | -0.03 | -0.0325 | -0.0067 | -0.0388 | 0.0685 | -0.0209 | -0.0825 | -0.0834 | 0 | -0.0029 | -0.0705 | -0.0051 | 0.0204 | -0.0654 | -0.0582 | -0.0605 | -0.0501 | -0.0213 | -0.0548 | -0.0233
CN(C)CCCOc1ccc(-c2ccc3ncc4c(c3c2)n(C2CCOCC2)c(=O)n4C)cn1 [AZD0156] + CCN(CCO)CCCOc1ccc2c(Nc3cc(CC(=O)Nc4cccc(F)c4)[nH]n3)ncnc2c1 [AZD2811] (first compound max 1 µM, 7x7, partner max 1 µM) | -0.0214 | -0.0402 | -0.0387 | -0.0123 | 0.0235 | -0.005 | -0.0412 | -0.0226 | -0.043 | -0.024 | -0.084 | -0.0747 | 0.0625 | -0.0536 | -0.0656 | -0.0205 | 0.0244 | -0.0244 | -0.0288 | 0.0262
CCN(CCO)CCCOc1ccc2c(Nc3cc(CC(=O)Nc4cccc(F)c4)[nH]n3)ncnc2c1 [AZD2811] + C[C@@H]1COCCN1C2=NC(=NC(=C2)C3(CC3)[S@](=N)(=O)C)C4=C5C=CNC5=NC=C4 [AZD6738] (first compound max 1 µM, 7x7, partner max 10 µM) | 0.0103 | -0.0823 | -0.0565 | -0.0207 | -0.0108 | -0.0665 | -0.033 | 0.006 | -0.0184 | -0.0288 | -0.0229 | -0.0706 | -0.0111 | -0.0367 | -0.0536 | -0.0394 | -0.0281 | -0.0399 | -0.0975 | -0.0587
